Earlier results in US20170128595A1, “MICROBIAL GROWTH INDICATING MEDICAL DEVICES” (Indicator Systems International, Inc., priority 2013, published 2017).

Details: fluorescein; ionization equilibrium gives pH-dependent absorption and emission over pH 5 to 9

Q: With fluorescein as the substance, how does the pKa read?
A: 6.4
